pIC50: −log10 of the molar value. Like-named read-outs stand apart in the source and are kept apart here.

The results in this text go back to US20260356851A1, “TRICYCLIC COMPOUNDS AND USES THEREOF” (HUTCHMED LIMITED, priority 2023, published 2026).

Assay type in all cases: cell-based
For assay [1], the target named is T1, pERK1/2 (Thr202/Tyr204), NCI-1H358 (KRAS G12C) (Homo sapiens, UniProt P01116, G12C).
T1 construct: pERK1/2 HTRF read-out
As to the kind of experiment: Assay of intracellular pERK1/2 (Thr202/Tyr204) phosphorylation in NCI-H358 cells (KRAS G12C). The gist of the method: (§1)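 Cells (10000-12000/well) exposed to 3-fold compound dilutions for 2 days at 37 °C, then lysed; pERK1/2 (Thr202/Tyr204) measured by HTRF with d2 and cryptate antibodies, 665/615 nm ratio.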

The target of assay [2] is T2, pERK1/2 (Thr202/Tyr204), PANC-1 (KRAS G121D) (Homo sapiens, UniProt P01116, G12D).
T2 construct: pERK1/2 HTRF read-out
T2 sequence (P01116 1-188 isoform P01116-2 G12D): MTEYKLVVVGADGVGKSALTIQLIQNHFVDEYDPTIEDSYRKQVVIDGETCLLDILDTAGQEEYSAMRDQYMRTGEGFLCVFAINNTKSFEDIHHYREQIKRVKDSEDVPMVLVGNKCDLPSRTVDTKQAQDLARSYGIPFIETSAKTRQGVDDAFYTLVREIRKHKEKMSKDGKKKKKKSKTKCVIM
As to the kind of experiment: Assay of intracellular pERK1/2 (Thr202/Tyr204) phosphorylation in PANC-1 cells (KRAS G12D). The gist of the method: as §1

Assay [3] concerns the target T3, pERK1/2 (Thr202/Tyr204), NCI-1H441 (KRAS G12V) (Homo sapiens, UniProt P01116, G12V).
T3 construct: pERK1/2 HTRF read-out
Description: Assay of intracellular pERK1/2 (Thr202/Tyr204) phosphorylation in NCI-H441 cells (KRAS G12V). The gist of the method: as §1

[4] abbreviates: pERK1/2, 2 days, read-out: NCI-H358 (KRAS G12C) IC50.
Setting [5] is: pERK1/2, 2 days, read-out: PANC-1 (KRAS G12D) IC50.
[6] abbreviates: pERK1/2, 2 days, read-out: NCI-H441 (KRAS G12V) IC50.
Setting [7] is: read-out: NCI-H358 (KRAS G12C) IC50, pERK1/2, 2 days.
Where [8] appears, read: read-out: PANC-1 (KRAS G12D) IC50, pERK1/2, 2 days.
[9] abbreviates: read-out: NCI-H441 (KRAS G12V) IC50, pERK1/2, 2 days.

T3 sequence (P01116 1-188 isoform P01116-2 G12V): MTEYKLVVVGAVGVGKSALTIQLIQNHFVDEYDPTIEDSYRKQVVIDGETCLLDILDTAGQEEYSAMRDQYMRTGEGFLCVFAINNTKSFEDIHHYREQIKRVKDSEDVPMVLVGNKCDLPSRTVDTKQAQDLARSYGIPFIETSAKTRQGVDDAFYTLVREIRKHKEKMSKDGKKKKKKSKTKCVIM
T1 sequence (P01116 1-188 isoform P01116-2 G12C): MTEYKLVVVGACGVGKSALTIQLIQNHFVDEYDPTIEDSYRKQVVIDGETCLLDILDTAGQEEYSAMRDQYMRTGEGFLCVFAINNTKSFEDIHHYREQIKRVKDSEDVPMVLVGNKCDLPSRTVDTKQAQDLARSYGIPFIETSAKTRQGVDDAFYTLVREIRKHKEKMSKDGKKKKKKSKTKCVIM

Turning to `CC(c1cccnc1N)N1c2nc(OC[C@@]34CCCN3C[C@H](F)C4)nc3c(F)c(-c4cc(N)cc(Cl)c4C4CC4)nc(c23)OC[C@@H]1C` (stereo partly drawn) [Compound 305], the figures for the pIC50 in assay [1] (setting [4]), in assay [2] (setting [5]) and in assay [3] (setting [6]) were 9.52, 9.52 and 9.22, respectively.
As for `CC(c1cccnc1N)N1c2nc(OC[C@@]34CCCN3C[C@H](F)C4)nc3c(F)c(-c4cc(N)cc(Cl)c4)nc(c23)OC[C@@H]1C` (stereo partly drawn) [Compound 306], the results for the pIC50 in assay [1] (setting [4]), in assay [2] (setting [5]) and in assay [3] (setting [6]) were 7.80, 7.03 and 7.40, respectively.
Take `CCc1c(F)ccc2cc(OC(=O)N3CCOCC3)cc(-c3nc4c5c(nc(OC[C@@]67CCCN6C[C@H](F)C7)nc5c3F)N(C(C)c3cccnc3N)[C@@H](C)CO4)c12` (stereo partly drawn) [Compound 307]: the pIC50 was 7.89 in assay [1] (setting [7]), 7.80 in assay [2] (setting [8]) and 7.64 in assay [3] (setting [9]).
In the same order, the values of `CC(c1cccn2ccnc12)N1c2nc(OC[C@@]34CCCN3C[C@H](F)C4)nc3c(F)c(-c4cc(O)cc5ccc(F)c(F)c45)nc(c23)OC[C@@H]1C` (stereo partly drawn) [Compound 310, (*)5,6-Difluoro-4-((9S)-4-fluoro-2-(((2R,7aS)-2-fluorotetrahydro-1H-pyrrolizin-7a(5H)-yl)methoxy)-10-(1-(imidazo[1,2-a]pyridin-8-yl)ethyl)-9-methyl-9,10-dihydro-8H-7-oxa-1,3,6,10-tetraazacyclohepta[de]naphthalen-5-yl)naphthalen-2-ol] are below 7.00, below 7.00 and below 7.00.
In the case of `Cc1nc(N)cc(-c2nc3c4c(nc(OC[C@@]56CCCN5C[C@H](F)C6)nc4c2F)N(C(C)c2cccnc2N)[C@@H](C)CO3)c1C(F)(F)F` (stereo partly drawn) [Compound 311], the pIC50 in assay [1] (setting [4]) is 9.30; in assay [2] (setting [5]), 8.22; in assay [3] (setting [6]), 9.10.
The corresponding values for `Cc1cc2[nH]ncc2c(-c2nc3c4c(nc(OC[C@@]56CCCN5C[C@H](F)C6)nc4c2F)N(C(C)c2cccnc2N)[C@@H](C)CO3)c1C(F)(F)F` (stereo partly drawn) [Compound 312] are 9.52, 9.52 and 9.40.
The corresponding values for `Cc1cc2[nH]ncc2c(-c2nc3c4c(nc(OC[C@@]56CCCN5C[C@H](F)C6)nc4c2F)N(C(C)c2cccnc2N)[C@@H](C)CO3)c1Cl` (stereo partly drawn) [Compound 313] are 9.30, 8.52 and 9.00.
For `Cc1cc2cn[nH]c2cc1-c1nc2c3c(nc(OC[C@@]45CCCN4C[C@H](F)C5)nc3c1F)N(C(C)c1cccnc1N)[C@@H](C)CO2` (stereo partly drawn) [Compound 314], the pIC50 in assay [1] (setting [4]), in assay [2] (setting [5]) and in assay [3] (setting [6]) was below 7.00 throughout.
On to `CC(c1cccnc1N)N1c2nc(OC[C@@]34CCCN3C[C@H](F)C4)nc3c(F)c(-c4cc(O)cc(Cl)c4C(F)(F)F)nc(c23)OC[C@@H]1C` (stereo partly drawn) [Compound 315], for which the values for the pIC50 in assay [1] (setting [4]), in assay [2] (setting [5]) and in assay [3] (setting [6]) were 8.70, 8.22 and 8.40, respectively.
In the same order, the values of `COc1cc2cn[nH]c2cc1-c1nc2c3c(nc(OC[C@@]45CCCN4C[C@H](F)C5)nc3c1F)N(C(C)c1cccnc1N)[C@@H](C)CO2` (stereo partly drawn) [Compound 316] are below 7.00, below 7.00 and below 7.00.
In the same order, the values of `Cc1cc2[nH]ncc2c(-c2nc3c4c(nc(OC[C@@]56CCCN5C[C@H](F)C6)nc4c2F)N(C(C)c2cccnc2N)[C@@H](C)CO3)c1C1CC1` (stereo partly drawn) [Compound 317] are 9.40, 9.52 and 9.10.
Consider `Cc1ccc2[nH]ncc2c1-c1nc2c3c(nc(OC[C@@]45CCCN4C[C@H](F)C5)nc3c1F)N(C(C)c1cccnc1N)[C@@H](C)CO2` (stereo partly drawn) [Compound 318], for which the pIC50 is 9.00 in assay [1] (setting [4]), 7.43 in assay [2] (setting [5]) and 8.15 in assay [3] (setting [6]).
For the compound `Cc1ccc2[nH]nc(C)c2c1-c1nc2c3c(nc(OC[C@@]45CCCN4C[C@H](F)C5)nc3c1F)N(C(C)c1cccnc1N)[C@@H](C)CO2` (stereo partly drawn) [Compound 319], the pIC50 in assay [1] (setting [4]) was 9.05; in assay [2] (setting [5]), 8.00; in assay [3] (setting [6]) it was 9.00.
`CC(c1cccnc1N)N1c2nc(OC[C@@]34CCCN3C[C@H](F)C4)nc3c(F)c(-c4ccc(F)c5sc(N)nc45)nc(c23)OC[C@@H]1C` (stereo partly drawn) [Compound 320]: the pIC50 in assay [1] (setting [4]) is 9.05; in assay [2] (setting [5]) it was 7.55; in assay [3] (setting [6]) it was 8.40.
The corresponding values for `CC(c1cccnc1N)N1c2nc(OC[C@@]34CCCN3C[C@H](F)C4)nc3c(F)c(-c4c(Cl)ccc5[nH]ncc45)nc(c23)OC[C@@H]1C` (stereo partly drawn) [Compound 321] are 9.00, 7.44 and 8.15.
`CC(c1cccnc1N)N1c2nc(OC[C@@]34CCCN3C[C@H](F)C4)nc3c(F)c(-c4cc(O)cc(Cl)c4C#N)nc(c23)OC[C@@H]1C` (stereo partly drawn) [Compound 322]: the pIC50 is 7.68 in assay [1] (setting [4]), below 7.00 in assay [2] (setting [5]) and 7.01 in assay [3] (setting [6]).
The corresponding values for `CC(c1cccnc1N)N1c2nc(OC[C@@]34CCCN3C[C@H](F)C4)nc3c(F)c(-c4c(C(F)(F)F)cnc5[nH]ccc45)nc(c23)OC[C@@H]1C` (stereo partly drawn) [Compound 323] are 9.22, 8.00 and 8.70.
The corresponding values for `Cc1c(-c2nc3c4c(nc(OC[C@@]56CCCN5C[C@H](F)C6)nc4c2F)N(C(C)c2cccnc2N)[C@@H](C)CO3)ccc2cn[nH]c12` (stereo partly drawn) [Compound 324] are 7.55, below 7.00 and below 7.00.
In the same order, the values of `CC(c1cccnc1N)N1c2nc(OC[C@@]34CCCN3C[C@H](F)C4)nc3c(F)c(-c4cc5[nH]ncc5cc4C(F)(F)F)nc(c23)OC[C@@H]1C` (stereo partly drawn) [Compound 325] are 7.55, below 7.00 and 7.36.
As for `Cc1cc(N)nc(-c2nc3c4c(nc(OC[C@@]56CCCN5C[C@H](F)C6)nc4c2F)N(C(C)c2cccnc2N)[C@@H](C)CO3)c1C(F)(F)F` (stereo partly drawn) [Compound 326, (*)6-((9S)-10-(1-(2-aminopyridin-3-yl)ethyl)-4-fluoro-2-(((2R,7aS)-2-fluorotetrahydro-1H-pyrrolizin-7a(5H)-yl)methoxy)-9-methyl-9,10-dihydro-8H-7-oxa-1,3,6,10-tetraazacyclohepta[de]naphthalen-5-yl)-4-methyl-5-(trifluoromethyl)pyridin-2-amine], the results for the pIC50 in assay [1] (setting [4]), in assay [2] (setting [5]) and in assay [3] (setting [6]) were 9.00, 8.52 and 8.52, respectively.
Take `CC(c1cccnc1N)N1c2nc(OC[C@@]34CCCN3C[C@H](F)C4)nc3c(F)c(-c4ccc(F)c5sc(N)c(C(N)=O)c45)nc(c23)OC[C@@H]1C` (stereo partly drawn) [Compound 327]: the pIC50 in assay [1] (setting [4]), in assay [2] (setting [5]) and in assay [3] (setting [6]) was below 7.00 each time.
Take `CC(c1cccnc1N)N1c2nc(OC[C@@]34CCCN3C[C@H](F)C4)nc3c(F)c(-c4ccc(F)c5sc(N)c(C#N)c45)nc(c23)OC[C@@H]1C` (stereo partly drawn) [Compound 328]: the pIC50 in assay [1] (setting [4]) is 9.30; in assay [2] (setting [5]), 9.10; in assay [3] (setting [6]) it was 9.10.
Take `Cc1cc(N)nc(-c2nc3c4c(nc(OC[C@@]56CCCN5C[C@H](F)C6)nc4c2F)N(C(C)c2cccnc2N)[C@@H](C)CO3)c1` (stereo partly drawn) [Compound 329]: the pIC50 in assay [1] (setting [4]), in assay [2] (setting [5]) and in assay [3] (setting [6]) was below 7.00 each time.
Take `CC(c1cccnc1N)N1c2nc(OC[C@@]34CCCN3C[C@H](F)C4)nc3c(F)c(N4CC(O)Cc5ccccc54)nc(c23)OC[C@@H]1C` (stereo partly drawn) [Compound 331]: the pIC50 was 7.42 in assay [1] (setting [4]), below 7.00 in assay [2] (setting [5]) and below 7.00 in assay [3] (setting [6]).
For `CC(c1cccnc1N)N1c2nc(OC[C@@]34CCCN3C[C@H](F)C4)nc3c(F)c(-c4c(C5CC5)c(Cl)cc5[nH]ncc45)nc(c23)OC[C@@H]1C` (stereo partly drawn) [Compound 332], the pIC50 is 9.40 in assay [1] (setting [4]), 9.52 in assay [2] (setting [5]) and 9.05 in assay [3] (setting [6]).
For the compound `CC(c1cccnc1N)N1c2nc(OC[C@@]34CCCN3C[C@H](F)C4)nc3c(F)c(-c4c(F)cc(F)c5sc(N)nc45)nc(c23)OC[C@@H]1C` (stereo partly drawn) [Compound 333], the pIC50 in assay [1] (setting [4]) was 9.00; in assay [2] (setting [5]), 8.22; in assay [3] (setting [6]) it was 9.00.
`Cc1cc2[nH]ncc2c(-c2nc3c4c(nc(OC[C@@]56CCCN5C[C@H](F)C6)nc4c2F)N(C(C)c2cc(Cl)cnc2N)[C@@H](C)CO3)c1C(F)(F)F` (stereo partly drawn) [Compound 334, (*)5-Chloro-3-(1-((9S)-4-fluoro-2-(((2R,7aS)-2-fluorotetrahydro-1H-pyrrolizin-7a(5H)-yl)methoxy)-9-methyl-5-(6-methyl-5-(trifluoromethyl)-1H-indazol-4-yl)-8,9-dihydro-1OH-7-oxa-1,3,6,10-tetraazacyclohepta[de]naphthalen-10-yl)ethyl)pyridin-2-amine]: the figures for the pIC50 in assay [1] (setting [4]), in assay [2] (setting [5]) and in assay [3] (setting [6]) were 9.52, 9.22 and 9.30, respectively.
Consider `CC(c1cccnc1N)N1c2nc(OC[C@@]34CCCN3C[C@H](F)C4)nc3c(F)c(-c4cccc5nc(N)nn45)nc(c23)OC[C@@H]1C` (stereo partly drawn) [Compound 335], for which the pIC50 in assay [1] (setting [4]), in assay [2] (setting [5]) and in assay [3] (setting [6]) was below 7.00 each time.
